Results as given in US8889881B2, “Compound having skin-whitening, anti-oxidizing and PPAR activities and medical use therefor” (Pusan National University Industry —University Cooperation …, priority 2011, dated 2014).

Assays:
PPAR alpha-LBD = biological target: T1, PPAR alpha-LBD (Homo sapiens, UniProt Q07869); assay: PPAR assay, PPARα; settings: for PPARα activation (competitive activation rate), compared with fenofibrate: sample final concentration 100 μM, positive control fenofibrate, FIGS. 5 and 6; for simultaneous activation of PPARα and PPARγ: summary of the PPARα and PPARγ assays, sample 100 μM
T1 sequence (Q07869 239-466 limits assumed): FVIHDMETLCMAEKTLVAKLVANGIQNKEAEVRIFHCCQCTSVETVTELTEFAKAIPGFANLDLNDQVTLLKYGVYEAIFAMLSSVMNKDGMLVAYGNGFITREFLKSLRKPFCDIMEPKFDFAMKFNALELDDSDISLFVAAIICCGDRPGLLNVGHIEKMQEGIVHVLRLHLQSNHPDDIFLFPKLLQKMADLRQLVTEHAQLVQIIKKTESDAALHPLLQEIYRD

PPAR gamma-LBD = biological target: T2, PPAR gamma-LBD (Homo sapiens, UniProt P37231); assay: PPAR assay, PPARγ; assay type: binding; settings: sample final concentration 100 μM; positive control rosiglitazone; FIGS. 7 and 8
T2 sequence (P37231 238-503 limits assumed): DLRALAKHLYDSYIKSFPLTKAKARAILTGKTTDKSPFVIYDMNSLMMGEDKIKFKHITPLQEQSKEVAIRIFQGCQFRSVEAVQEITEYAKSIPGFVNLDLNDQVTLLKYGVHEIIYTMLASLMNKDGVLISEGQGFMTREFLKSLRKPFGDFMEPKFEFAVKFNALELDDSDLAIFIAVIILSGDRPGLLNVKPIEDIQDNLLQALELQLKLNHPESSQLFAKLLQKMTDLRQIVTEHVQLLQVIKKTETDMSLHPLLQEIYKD

melting point [°C]	SMILES	further results
138.6 to 140.3	COc1ccc(-c2nc3cc(Cl)ccc3s2)c(OC)c1 [Compound 91, 5-chloro-2-(2,4-dimethoxyphenyl)benzo[d]thiazole]	–
175 to 176.5	Oc1ccccc1-c1nc2cc(C(F)(F)F)ccc2s1 [Compound 38, 2-(5-(trifluoromethyl)benzo[d]thiazol-2-yl)phenol]	–
–	CCOc1cc(-c2nc3ccccc3s2)ccc1O [Compound 17, 4-(benzo[d]thiazol-2-yl)-2-ethoxyphenol]	PPARα activation (competitive activation rate), compared with fenofibrate (PPAR alpha-LBD): very excellent PPARα activation agent compared to fenofibrate; simultaneous activation of PPARα and PPARγ (PPAR alpha-LBD): simultaneously activates PPARα and PPARγ; PPARγ activation (competitive activation rate), compared with rosiglitazone (PPAR gamma-LBD): very excellent PPARγ activation agent compared to rosiglitazone
93.8 to 95.1	FC(F)(F)c1ccc2sc(-c3cccc(OCc4ccccc4)c3)nc2c1 [Compound 111, 2-(3-(Benzyloxy)phenyl)-5-(trifluoromethyl)benzo[d]thiazole]	–
–	Oc1ccc(-c2nc3ccccc3[nH]2)cc1Br [Compound 56, 4-(1H-benzo[d]imidazol-2-yl)-2-bromophenol]	PPARγ activation (competitive activation rate), compared with rosiglitazone (PPAR gamma-LBD): very excellent PPARγ activation agent compared to rosiglitazone
129.6 to 130.6	Oc1cc(O)cc(-c2nc3cc(Cl)ccc3s2)c1 [Compound 90, 5-(5-chlorobenzo[d]thiazol-2-yl)benzene-1,3-diol]	–
132.5 to 134	COc1cc(-c2nc3cc(C(F)(F)F)ccc3s2)cc(OC)c1OC [Compound 39, 5-(trifluoromethyl)-2-(3,4,5-trimethoxyphenyl)benzo[d]thiazole]	–
197 to 199.7	COc1cc(C2N[C@H](C(=O)O)CS2)cc(OC)c1OC (mixture of isomers) [Compound 11, (2R/S,4R)-2-(3,4,5-trimethoxyphenyl)thiazolidine-4-carboxylic acid]	–
> 300	COc1cc(-c2nc3cc(C(=O)O)ccc3[nH]2)ccc1O [Compound 60, 2-(4-hydroxy-3-methoxyphenyl)-1H-benzo[d]imidazole-5-carboxylic acid]	–
165.2 to 167.1	COc1ccc(-c2nc3cc(Cl)ccc3s2)cc1OC [Compound 89, 5-chloro-2-(3,4-dimethoxyphenyl)benzo[d]thiazole]	–
–	COc1cc(-c2nc3cc(C(=O)O)ccc3[nH]2)cc(OC)c1OC [Compound 67, 2-(3,4,5-trimethoxyphenyl)-1H-benzo[d]imidazole-5-carboxylic acid]	PPARα activation (competitive activation rate), compared with fenofibrate (PPAR alpha-LBD): very excellent PPARα activation agent compared to fenofibrate; simultaneous activation of PPARα and PPARγ (PPAR alpha-LBD): simultaneously activates PPARα and PPARγ; PPARγ activation (competitive activation rate), compared with rosiglitazone (PPAR gamma-LBD): very excellent PPARγ activation agent compared to rosiglitazone
142.7 to 143.3	Clc1ccc2sc(-c3ccc(OCc4ccccc4)cc3)nc2c1 [Compound 109, 2-(4-(benzyloxy)phenyl)-5-chlorobenzo[d]thiazole]	–
–	CC(C)(Oc1ccc(-c2nc3ccccc3s2)cc1)C(=O)O [Compound 97, 2-(4-(benzo[d]thiazol-2-yl)phenoxy)-2-methylpropanoic acid]	PPARα activation (competitive activation rate), compared with fenofibrate (PPAR alpha-LBD): very excellent PPARα activation agent compared to fenofibrate; simultaneous activation of PPARα and PPARγ (PPAR alpha-LBD): simultaneously activates PPARα and PPARγ; PPARγ activation (competitive activation rate), compared with rosiglitazone (PPAR gamma-LBD): very excellent PPARγ activation agent compared to rosiglitazone
120.4 to 121.6	COc1ccc(-c2nc3cc(C(F)(F)F)ccc3s2)cc1OC [Compound 35, 2-(3,4-dimethoxyphenyl)-5-(trifluoromethyl)benzo[d]thiazole]	–
174.3 to 175.9	CCOc1cc(C2N[C@H](C(=O)O)CS2)ccc1O (mixture of isomers) [Compound 5, (2R/S,4R)-2-(3-ethoxy-4-hydroxyphenyl)thiazolidine-4-carboxylic acid]	–
161.8 to 164.4	O=C(O)[C@@H]1CSC(c2ccc(O)cc2)N1 (mixture of isomers) [Compound 1, (2R/S,4R)-2-(4-hydroxyphenyl)thiazolidine-4-carboxylic acid]	–
139.6 to 141	COc1cc(C2N[C@H](C(=O)O)CS2)cc(OC)c1O (mixture of isomers) [Compound 12, (2R/S,4R)-2-(4-hydroxy-3,5-dimethoxyphenyl)thiazolidine-4-carboxylic acid]	–
–	Oc1ccc(-c2nc3ccccc3[nH]2)cc1 [Compound 43, 4-(1H-benzo[d]imidazol-2-yl)phenol]	PPARα activation (competitive activation rate), compared with fenofibrate (PPAR alpha-LBD): very excellent PPARα activation agent compared to fenofibrate; simultaneous activation of PPARα and PPARγ (PPAR alpha-LBD): simultaneously activates PPARα and PPARγ; PPARγ activation (competitive activation rate), compared with rosiglitazone (PPAR gamma-LBD): very excellent PPARγ activation agent compared to rosiglitazone
158.2 to 158.6	COc1ccc(-c2nc3cc(Cl)ccc3s2)cc1O [Compound 87, 5-(5-chlorobenzo[d]thiazol-2-yl)-2-methoxyphenol]	–

melting point [°C]	SMILES	further results
140.4 to 141.6	COc1ccc(-c2nc3cc(C(F)(F)F)ccc3s2)c(OC)c1 [Compound 37, 2-(2,4-dimethoxyphenyl)-5-(trifluoromethyl)benzo[d]thiazole]	–
–	O=C(O)c1ccc2[nH]c(-c3ccccc3O)nc2c1 [Compound 66, 2-(2-hydroxyphenyl)-1H-benzo[d]imidazole-5-carboxylic acid]	PPARα activation (competitive activation rate), compared with fenofibrate (PPAR alpha-LBD): very excellent PPARα activation agent compared to fenofibrate; simultaneous activation of PPARα and PPARγ (PPAR alpha-LBD): simultaneously activates PPARα and PPARγ; PPARγ activation (competitive activation rate), compared with rosiglitazone (PPAR gamma-LBD): very excellent PPARγ activation agent compared to rosiglitazone
246.6 to 247.7	COc1ccc(-c2nc3cc(C(=O)O)ccc3[nH]2)cc1O [Compound 62, 2-(3-hydroxy-4-methoxyphenyl)-1H-benzo[d]imidazole-5-carboxylic acid]	–
159.4 to 160	COc1cc(-c2nc3cc(Cl)ccc3s2)cc(OC)c1OC [Compound 93, 5-chloro-2-(3,4,5-trimethoxyphenyl)benzo[d]thiazole]	–
280 to 281.4	COc1cc(-c2nc3cc(C(=O)O)ccc3[nH]2)cc(OC)c1O [Compound 68, 2-(4-hydroxy-3,5-dimethoxyphenyl)-1H-benzo[d]imidazole-5-carboxylic acid]	–
137.4 to 138.9	COc1ccc(-c2nc3ccccc3s2)c(OC)c1 [Compound 22, 2-(2,4-dimethoxyphenyl)benzo[d]thiazole]	–
> 300	CCOc1cc(-c2nc3cc(C(=O)O)ccc3[nH]2)ccc1O [Compound 61, 2-(3-ethoxy-4-hydroxyphenyl)-1H-benzo[d]imidazole-5-carboxylic acid]	–
166.1 to 167.2	c1ccc(COc2ccc(-c3nc4ccccc4s3)cc2)cc1 [Compound 107, 2-(4-(benzyloxy)phenyl)benzo[d]thiazole]	–
> 300	O=C(O)c1ccc2[nH]c(-c3ccc(O)cc3)nc2c1 [Compound 57, 2-(4-hydroxyphenyl)-1H-benzo[d]imidazole-5-carboxylic acid]	–
142.1 to 144.5	COc1ccc(-c2nc3cc(C(F)(F)F)ccc3s2)cc1O [Compound 33, 2-methoxy-5-(5-(trifluoromethyl)benzo[d]thiazol-2-yl)phenol]	–
257 to 257.7	COc1cc(-c2nc3ccccc3[nH]2)cc(OC)c1OC [Compound 54, 2-(3,4,5-trimethoxyphenyl)-1H-benzo[d]imidazole]	–
194.2 to 195.7	Oc1ccccc1-c1nc2cc(Cl)ccc2s1 [Compound 92, 2-(5-chlorobenzo[d]thiazol-2-yl)phenol]	–
173.6 to 175.4	COc1ccc(C2N[C@H](C(=O)O)CS2)cc1OC (mixture of isomers) [Compound 8, (2R/S,4R)-2-(3,4-dimethoxyphenyl)thiazolidine-4-carboxylic acid]	–
274.5 to 276.5	Oc1cc(O)cc(-c2nc3ccccc3s2)c1 [Compound 21, 5-(benzo[d]thiazol-2-yl)benzene-1,3-diol]	–
194.3 to 195.1	FC(F)(F)c1ccc2sc(-c3ccc(OCc4ccccc4)cc3)nc2c1 [Compound 108, 2-(4-(benzyloxy)phenyl)-5-(trifluoromethyl)benzo[d]thiazole]	–
–	c1ccc(COc2ccc(-c3nc4ccccc4[nH]3)cc2)cc1 [Compound 114, 2-(4-(benzyloxy)phenyl)-1H-benzo[d]imidazole]	PPARα activation (competitive activation rate), compared with fenofibrate (PPAR alpha-LBD): very excellent PPARα activation agent compared to fenofibrate
121.5 to 122.1	c1ccc(COc2cccc(-c3nc4ccccc4s3)c2)cc1 [Compound 110, 2-(3-(benzyloxy)phenyl)benzo[d]thiazole]	–
277.9 to 280.1	Oc1ccc(-c2nc3cc(Cl)ccc3s2)c(O)c1 [Compound 84, 4-(5-chlorobenzo[d]thiazol-2-yl)benzene-1,3-diol]	–
256.7 to 260.6	Oc1cc(O)cc(-c2nc3cc(C(F)(F)F)ccc3s2)c1 [Compound 36, 5-(5-(trifluoromethyl)benzo[d]thiazol-2-yl)benzene-1,3-diol]	–
